Results published in the RepoRT retention time repository.
Counter-ions that a name gives are not always drawn.

test: HILIC, Merck SeQuant ZIC-HILIC, 25 °C, 0.25 mL/min; A: water + 16 mM ammonium formate; B: acetonitrile + 0.1% formic acid, pH 3; gradient (min/%B) 0/97 2/97 10/70 15/10 17/10 18/97 25/97; details: stereoisomer not certain

Point of comparison: `CCCCCCCCCCCCCCCCCC(=O)OCC(O)COP(=O)(O)OCCN` (stereo unspecified) [18-0_LysoPE], LC retention time 10.2 min. Against it:
- O=C(O)CC(CC(=O)O)C(=O)O [Tricarballylic acid] — within 1.5-fold, 9.58 min
- O=C(O)c1cc(O)ccc1O [2-5-DIHYDROXYBENZOATE] — 4.8-fold lower, 2.14 min
- Nc1ccc(C(=O)O)cc1 [4-AMINOBENZOATE] — 4.8-fold lower, 2.12 min
- Oc1cc(O)c2c(c1)OC(c1ccc(O)c(O)c1)C(O)C2 (single isomer, unassigned; (+)) [(+)-Catechin hydrate] — within 1.5-fold, 9.95 min
- CC(=O)C(=O)O [pyruvic acid] — 1.8-fold lower, 5.68 min
- O=C(O)CCCCCCCCC(=O)O [Sebacic acid] — 5.4-fold lower, 1.88 min
- Cc1cccnc1 [3-Methylpyridine (3-Picoline)] — 4.7-fold lower, 2.16 min
- NC(CCC(=O)O)C(=O)O (stereo unspecified) [GLUTAMATE] — within 1.5-fold, 14.2 min
- CC(=O)OC(CC(=O)[O-])C[N+](C)(C)C (stereo not drawn) [o-acetyl-l-carnitine hydrochloride] — within 1.5-fold, 13 min
- C=C(C)CCOP(=O)(O)OP(=O)(O)O [ISOPENTENYL PYROPHOSPHATE] — 4.8-fold lower, 2.11 min
- COC1=C(OC)C(=O)C(CC=C(C)CCC=C(C)C)=C(C)C1=O [coenzyme Q2] — 6.7-fold lower, 1.52 min
- O=C(O)Cc1ccc(O)c(O)c1 [3-4-DIHYDROXYPHENYLACETATE] — 1.8-fold lower, 5.6 min
- O=c1ccn(C2CC(O)C(COP(=O)(O)O)O2)c(=O)[nH]1 (stereo unspecified) [DEOXYURIDINE-MONOPHOSPHATE] — within 1.5-fold, 13.4 min
- O=C([O-])C=CC(=O)[O-] [MALEATE] — 4.7-fold lower, 2.17 min
- CC(=O)NC(C(=O)O)C(C)C (racemic) [N-acetyl-DL-valine] — 4.9-fold lower, 2.08 min
- C=C(C)C1CCC2(C(=O)O)CCC3(C)C(CCC4C5(C)CCC(O)C(C)(C)C5CCC43C)C12 (stereo unspecified) [Betulinic acid] — 6.5-fold lower, 1.58 min
- CC12CCC(O)CC1CCC1C2C(O)CC2(C)C1CCC2(O)C(=O)CO (stereo unspecified) — 5.3-fold lower, 1.91 min
- CC1NC(=O)NC1CCCCCC(=O)O (stereo unspecified) [DETHIOBIOTIN] — 4.8-fold lower, 2.13 min
- CC(=O)NC(CC(=O)O)C(=O)O (stereo unspecified) [N-ACETYLASPARTATE] — within 1.5-fold, 8.76 min
- O=C(O)CCc1ccccc1 [hydrocinnamic acid] — 6-fold lower, 1.69 min
- O=c1[nH]cnc2c1ncn2C1OC(COP(=O)([O-])OP(=O)([O-])O)C(O)C1O (stereo unspecified) [INOSINE 5'-DIPHOSPHATE] — within 1.5-fold, 15 min
- CC(C)(CC(=O)O)CC(=O)O [3-3-Dimethylglutaric acid] — 4.8-fold lower, 2.11 min
- CC(=O)C1(O)CCC2C3CCC4=CC(=O)CCC4(C)C3C(O)CC21C (stereo unspecified) [21-Deoxycortisol] — 6.1-fold lower, 1.68 min
- CC(=O)NC(CS)C(=O)O (stereo unspecified) [N-ACETYLCYSTEINE] — 3-fold lower, 3.43 min
- CC(=O)NC(CCC(=O)O)C(=O)O (stereo unspecified) [N-ACETYLGLUTAMATE] — within 1.5-fold, 8.36 min
- O=C(O)C(COP(=O)(O)O)OP(=O)(O)O [2-3-DIPHOSPHO-D-GLYCERIC ACID] — 1.5-fold higher, 15.7 min
- C[C@H](O)CC(=O)O [(S)-3-Hydroxybutyric acid] — 4.7-fold lower, 2.16 min
- NC(C(=O)O)c1ccccc1 (stereo unspecified) [2-Phenylglycine] — within 1.5-fold, 11.8 min
- CC(N)(Cc1cnc[nH]1)C(=O)O (racemic) [Alpha-methyl-DL-histidine dihydrochloride] — 1.5-fold higher, 15.5 min
- NC(=O)C[C@H](N)C(=O)O [L-Asparagine] — within 1.5-fold, 14.2 min
- Cn1cncc1CCN [3-METHYLHISTAMINE] — 1.7-fold higher, 17.2 min
- NC(=O)NCCCC(N)C(=O)O (stereo unspecified) [CITRULLINE] — within 1.5-fold, 14.5 min
- NCCP(=O)(O)O [(2-AMINOETHYL)PHOSPHONATE] — within 1.5-fold, 15 min
- Cn1c(=O)c2c(ncn2C)n(C)c1=O [CAFFEINE] — 5.5-fold lower, 1.87 min
- O=C(O)CCCCCCCCCCCO [OMEGA-HYDROXYDODECANOATE] — 6-fold lower, 1.7 min
- NC(CCSSCCC(N)C(=O)O)C(=O)O (stereo unspecified) [HOMOCYSTINE] — within 1.5-fold, 15 min
- NCCCN [1-3-DIAMINOPROPANE] — 1.7-fold higher, 17.6 min
- Nc1nc2c(ncn2C2CC(O)C(COP(=O)(O)O)O2)c(=O)[nH]1 (stereo unspecified) [dGMP sodium salt hydrate] — within 1.5-fold, 14.4 min
- O=C(O)c1cccnc1C(=O)O [QUINOLINATE] — within 1.5-fold, 8.88 min
- Cn1cnc(C[C@H](N)C(=O)O)c1 [1-METHYL-L-HISTIDINE] — 1.5-fold higher, 15.8 min
- NCCc1ccc(O)cc1 [TYRAMINE] — within 1.5-fold, 11.3 min
- NCC(O)c1ccccc1 (stereo unspecified) [PHENYLETHANOLAMINE] — within 1.5-fold, 10.9 min
- Nc1ncnc2c1ncn2C1CC(O)C(COP(=O)(O)O)O1 (stereo unspecified) [DEOXYADENOSINE MONOPHOSPHATE] — within 1.5-fold, 13.3 min
- O=c1ccn(C2CC(O)C(CO)O2)c(=O)[nH]1 (stereo unspecified) [DEOXYURIDINE] — 4.2-fold lower, 2.45 min
- C[C@@H](O)[C@H](N)C(=O)O [L-Threonine] — within 1.5-fold, 13.7 min
- NCCC(=O)O [BETA-ALANINE] — within 1.5-fold, 14.1 min
- c1ccc2ncccc2c1 [QUINOLINE] — 4.8-fold lower, 2.14 min
- OCC1OCC(O)C(O)C1O [1-5-Anhydro-D-sorbitol] — within 1.5-fold, 10.1 min
- NC(N)=NC(CC(=O)O)C(=O)O (stereo unspecified) [GUANIDINOSUCCINATE] — within 1.5-fold, 14.4 min
- NC(CSSCC(N)C(=O)O)C(=O)O (stereo unspecified) [CYSTINE] — 1.5-fold higher, 15.4 min
- CCCCCCCCCCCCCC(=O)OCC(O)CO (stereo unspecified) [GLYCEROL-MYRISTATE] — 6.2-fold lower, 1.64 min
- Cc1ncc(C[n+]2csc(CCOP(=O)([O-])OP(=O)(O)O)c2C)c(N)n1 [THIAMINE PYROPHOSPHATE] — 1.6-fold higher, 16.5 min
- O=CC(O)C1OC(=O)C(O)C1O [D-GLUCURONOLACTONE] — within 1.5-fold, 8.75 min
- Cn1cncc1CC(NC(=O)CCN)C(=O)O (stereo unspecified) [ANSERINE] — 1.6-fold higher, 16.1 min
- Cc1cnc(=O)[nH]c1N [5-METHYLCYTOSINE] — within 1.5-fold, 11.6 min
- Nc1ccn(C2OC(COP(=O)(O)OP(=O)(O)OP(=O)(O)O)C(O)C2O)c(=O)n1 (stereo unspecified) [CYTIDINE TRIPHOSPHATE] — 1.6-fold higher, 15.9 min
- O=CCc1c[nH]c2ccccc12 [INDOLEACETALDEHYDE] — within 1.5-fold, 10 min
- NCC(=O)CCC(=O)O [5-AMINOLEVULINATE] — within 1.5-fold, 13.8 min
- O=C(O)Cc1c[nH]c2ccccc12 [INDOLE-3-ACETATE] — 5-fold lower, 2.06 min
- Nc1nc2c(ncn2C2CC(O)C(COP(=O)(O)OP(=O)(O)O)O2)c(=O)[nH]1 (stereo unspecified) [DGDP] — within 1.5-fold, 15.2 min
- CS(=N)(=O)CCC(N)C(=O)O (stereo unspecified) [METHIONINE SULFOXIMINE] — within 1.5-fold, 14.4 min
- CCCCCCCCCCCCCCCCCC(=O)OCC(O)COP(=O)([O-])OCC[N+](C)(C)C (stereo unspecified) [18-0_LysoPC] — within 1.5-fold, 11.2 min
- O=C(O)C(=O)CO [HYDROXYPYRUVATE] — within 1.5-fold, 13.3 min
- O=C(O)Cc1ccc(O)cc1 [4-Hydroxyphenylacetic acid] — 4.4-fold lower, 2.34 min
- Nc1ccn(C2CC(O)C(COP(=O)([O-])OP(=O)([O-])[O-])O2)c(=O)n1 (stereo unspecified) [DEOXYCYTIDINE-DIPHOSPHATE] — within 1.5-fold, 15.2 min
- NC(=O)c1ccc[n+](C2OC(COP(=O)(O)OP(=O)(O)OCC3OC(n4cnc5c(N)ncnc54)C(O)C3O)C(O)C2O)c1 (stereo not drawn) [BETA-NICOTINAMIDE ADENINE DINUCLEOTIDE] — within 1.5-fold, 14.6 min
- NCC(O)c1ccc(O)c(O)c1 (stereo unspecified) [NORADRENALINE] — within 1.5-fold, 13.4 min
- CC(CCC(=O)O)C1CCC2C3C(=O)CC4CC(O)CCC4(C)C3CC(O)C12C (stereo unspecified) [5b-cholanic acid-3a-12a-DIOL-7-ONE] — 4.7-fold lower, 2.17 min
- Cn1cnc2nc(N)[nH]c(=O)c21 [7-methylguanine] — within 1.5-fold, 9.77 min
- Cc1cc(O)cc2c1OC(C)(CCC(=O)O)CC2 (stereo unspecified) [delta CEHC] — 5.5-fold lower, 1.87 min
- Nc1ccnc(=O)[nH]1 [CYTOSINE] — within 1.5-fold, 12 min
- NC(=O)c1ccc[n+](C2OC(COP(=O)(O)OP(=O)(O)OCC3OC(n4cnc5c(=O)[nH]cnc54)C(O)C3O)C(O)C2O)c1 (stereo unspecified) [NICOTINAMIDE HYPOXANTHINE DINUCLEOTIDE] — within 1.5-fold, 14.8 min
- O=C1CCNC(=O)N1 [DIHYDROURACIL] — 4.8-fold lower, 2.13 min
- CC(=O)NCCCC(=O)O [4-ACETAMIDOBUTANOATE] — 3.6-fold lower, 2.87 min
- Cc1cc(=O)oc(C)c1C(=O)O [Isodehydracetic acid] — 4.4-fold lower, 2.33 min
- NC1C(O)OC(COS(=O)(=O)O)C(O)C1O (stereo unspecified) [GLUCOSAMINE 6-SULFATE] — 1.5-fold higher, 15.5 min
- O=C(O)CC(O)(CC(=O)O)C(=O)O [CITRATE] — within 1.5-fold, 13 min
- CC(=O)OCC[N+](C)(C)C [ACETYLCHOLINE+C2H2O4] — within 1.5-fold, 10 min
- COc1ccc2[nH]cc(CCNC(C)=O)c2c1 [MELATONIN] — 5.3-fold lower, 1.92 min
- CCCCCCCCCCCCCCCC(=O)OCC(O)COP(=O)(O)OCCN (stereo unspecified) [16-0_LysoPE] — the same, 10.2 min
- NC(Cc1cc(I)c(O)c(I)c1)C(=O)O [3-5-DIIODO-L-TYROSINE] — within 1.5-fold, 10.5 min
- O=c1[nH]cc(CO)c(=O)[nH]1 [5-HYDROXYMETHYLURACIL] — within 1.5-fold, 8.25 min
- CC(CCC(=O)O)C1CCC2C3CCC4CC(O)CCC4(C)C3CC(=O)C12C (stereo unspecified) [5b-cholanic acid-3a-OL-12-ONE] — 5.6-fold lower, 1.81 min
- N[C@@H](Cc1ccccc1)C(=O)O [L-Phenylalanine] — within 1.5-fold, 11.1 min
- Nc1nc2nc[nH]c2c(=O)[nH]1 [GUANINE] — within 1.5-fold, 10.8 min
- CN(CC(=O)O)C(=N)N [CREATINE] — within 1.5-fold, 13.9 min
- NCCc1c[nH]c2ccccc12 [TRYPTAMINE] — within 1.5-fold, 10.5 min
- O=C(C=Cc1ccc(O)c(O)c1)OC(Cc1ccc(O)c(O)c1)C(=O)O (stereo unspecified) [ROSMARINATE] — within 1.5-fold, 8.82 min
- O=C(O)C(O)C(O)C(=O)O (stereo unspecified) [TARTRATE D] — within 1.5-fold, 14.2 min
- O=Cc1cccc(O)c1 [3-HYDROXYBENZALDEHYDE] — 5.8-fold lower, 1.75 min
- C=C1CCC(O)CC1=CC=C1CCCC2(C)C1CCC2C(C)C=CC(C)C(C)C (stereo unspecified) [VITAMIN D2] — 6.6-fold lower, 1.55 min
- CC(C)(N)C(=O)O [2-AMINOISOBUTYRATE] — within 1.5-fold, 13 min
- NC1(C(=O)O)CC1 [1-AMINOCYCLOPROPANECARBOXYLATE] — within 1.5-fold, 13.5 min
- NC(CCS)C(=O)O (stereo unspecified) [HOMOCYSTEINE] — within 1.5-fold, 12.4 min
- CC(=O)CC(=O)[O-] [ACETOACETATE] — 5.3-fold lower, 1.91 min
